Data from US20260274892A1, “MACROCYCLIC BROAD SPECTRUM ANTIBIOTICS” (RQx Pharmaceuticals, Inc., priority 2017, published 2026).

Tested on: Escherichia coli ATCC 25922
Assay: Minimum inhibitory concentration (MIC), CLSI broth micro-dilution, E. coli
Type: cell-based
Conditions: Escherichia coli, ATCC25922, 22 h, Table 6, cation adjusted Mueller Hinton Broth + 0.002% Tween-80, 35° C.
Procedure: In vitro antimicrobial activity of each compound was determined by measuring minimal inhibitor concentrations (MICs) using the broth micro-dilution technique as approved by the Clinical and Laboratory Standards Institute (CLSI) (Methods for Dilution Antimicrobial Susceptibility Tests for Bacteria that Grow Aerobically; Approved Standard-Eighth Edition. CLSI document M07-A8. Wayne, PA: Clinical and Laboratroy Standards; 2009). Antibacterial activity was measure against two strains of bacteria: a Methicillin Resistant Staphylococcus aureus strain USA 200, (S. aureus) and Escherichia coli ATCC 25922 (E. coli), a clinically relevant Gram-negative strain. Cells were inoculated onto plates of Trypyticase Soy Agar or Luria Agar respectively and grown at 35° C. for 20 hours. Inocula suspensions were prepared by scraping cells into 1 mL of testing media (cation adjusted Mueller Hinton Broth supplemented with 0.002% v/v Tween-80) and diluting to a final OD600nm of 0.01.
Test compounds were prepared in DMSO at a concentration of 10 mg/mL. In protocol 1, the compound stocks were diluted into testing media at a concentration of 64 µg/ml and serial 2-fold dilutions were made in the same media, in 96-well U bottom microtiter dishes, for a total of 10 compound concentrations. In protocol 2, the compound stocks were diluted into testing media at a concentration of 4 µg/mL and serial 2-fold dilutions were made in the same media, in 96-well U bottom microtiter dishes, for a total of 10 compound concentrations. In protocol 3, compound stocks were diluted into testing media at a concentration of 0.5 μg/mL, with serial 2-fold dilutions conducted as described above. In protocol 4, compound stocks were diluted into testing media at a concentration of […], with serial 2-fold dilutions conducted as described above. Inocula suspensions were added to the 2-fold serial dilutions of test compounds to a final density of GD OD600nm of 0.0005 and incubated at 35° C. for 22 hours.

Compared with Cc1nc(-c2ccc(C3CCCC3)cc2)nc(C)c1C(=O)N[C@@H](CCN)C(=O)N(C)[C@@H]1C(=O)N[C@@H](C)C(=O)N[C@H](C(=O)NCC#N)Cc2ccc(OCCN)c(c2)-c2cc1ccc2OCCN (racemic) [Compound 302, rac-(8S,11S,14S)-3,18-bis(2-aminoethoxy)-N-(cyanomethyl)-11-methyl-14-[methyl-[rac-(2S)-4-amino-2-[[2-(4-cyclopentylphenyl)-4,6-dimethyl-pyrimidine-5-carbonyl]amino]butanoyl]amino]-10,13-dioxo-9,12-diazatricyclo[13.3.1.12,6]icosa-1(18),2(20),3,5,15(19),16-hexaene-8-carboxamide], Cc1nc(-c2ccc(C3=CCCCC3)cc2)nc(C)c1C(=O)N[C@@H](CCN)C(=O)N(C)[C@@H]1C(=O)N[C@@H](C)C(=O)N[C@H](C(=O)NCC#N)Cc2ccc(OCCN)c(c2)-c2cc1ccc2OCCN (racemic) [Compound 303, rac-(8S,11S,14S)-3,18-bis(2-aminoethoxy)-N-(cyanomethyl)-11-methyl-14-[methyl-[rac-(2S)-4-amino-2-[[2-[4-(cyclohexen-1-yl)phenyl]-4,6-dimethyl-pyrimidine-5-carbonyl]amino]butanoyl]amino]-10,13-dioxo-9,12-diazatricyclo[13.3.1.12,6]icosa-1(18),2(20),3,5,15(19),16-hexaene-8-carboxamide] is 3.8-fold lower in MIC: 0.5 µM for the first, 0.13 µM for the second.

Same assay, conditions: Escherichia coli, ATCC25922, Table 6, cation adjusted Mueller Hinton Broth + 0.002% Tween-80, 35° C., 22 hours

Compared with Cc1cc(C(C)(C)C)ccc1-c1ccc(C(=O)N[C@@H](CCN)C(=O)N(C)[C@@H]2C(=O)N[C@@H](C)C(=O)N[C@H](C(=O)NCC#N)Cc3ccc(OCCN)c(c3)-c3cc2ccc3OCCN)c(C)n1 (racemic) [Compound 210, rac-(8S,11S,14S)-3,18-bis(2-aminoethoxy)-N-(cyanomethyl)-11-methyl-14-[methyl-[rac-(2S)-4-amino-2-[[6-(4-tert-butyl-2-methyl-phenyl)-2-methyl-pyridine-3-carbonyl]amino]butanoyl]amino]-10,13-dioxo-9,12-diazatricyclo[13.3.1.12,6]icosa-1(18),2(20),3,5,15(19),16-hexaene-8-carboxamide], Cc1cc(-c2ccc(C(C)(C)C)cc2)ncc1C(=O)N[C@@H](CCN)C(=O)N(C)[C@@H]1C(=O)N[C@@H](C)C(=O)N[C@H](C(=O)NCC#N)Cc2ccc(OCCN)c(c2)-c2cc1ccc2OCCN (racemic) [Compound 215, rac-(8S,11S,14S)-3,18-bis(2-aminoethoxy)-N-(cyanomethyl)-11-methyl-14-[methyl-[rac-(2S)-4-amino-2-[[6-(4-tert-butylphenyl)-4-methyl-pyridine-3-carbonyl]amino]butanoyl]amino]-10,13-dioxo-9,12-diazatricyclo[13.3.1.12,6]icosa-1(18),2(20),3,5,15(19),16-hexaene-8-carboxamide] is 2.7-fold lower in MIC: 0.35 µM for the first, 0.13 µM for the second.

First: Cc1nc(-c2ccc(C3(C(F)(F)F)CC3)cc2)ccc1C(=O)N[C@@H](CCN)C(=O)N(C)[C@@H]1C(=O)N[C@@H](C)C(=O)N[C@H](C(=O)NCC#N)Cc2ccc(OCCN)c(c2)-c2cc1ccc2OCCN (racemic) [Compound 211, rac-(8S,11S,14S)-3,18-bis(2-aminoethoxy)-N-(cyanomethyl)-11-methyl-14-[methyl-[rac-(2S)-4-amino-2-[[2-methyl-6-[4-[1-(trifluoromethyl)cyclopropyl]phenyl]pyridine-3-carbonyl]amino]butanoyl]amino]-10,13-dioxo-9,12-diazatricyclo[13.3.1.12,6]icosa-1(18),2(20),3,5,15(19),16-hexaene-8-carboxamide]
Second: Cc1nc(-c2ccc(CC(C)(C)C)cc2)ncc1C(=O)N[C@@H](CCN)C(=O)N(C)[C@@H]1C(=O)N[C@@H](C)C(=O)N[C@H](C(=O)NCC#N)Cc2ccc(OCCN)c(c2)-c2cc1ccc2OCCN (racemic) [Compound 226, rac-(8S,11S,14S)-3,18-bis(2-aminoethoxy)-N-(cyanomethyl)-11-methyl-14-[methyl-[rac-(2S)-4-amino-2-[[2-[4-(2,2-dimethylpropyl)phenyl]-4-methyl-pyrimidine-5-carbonyl]amino]butanoyl]amino]-10,13-dioxo-9,12-diazatricyclo[13.3.1.12,6]icosa-1(18),2(20),3,5,15(19),16-hexaene-8-carboxamide]
The MIC of the first is 1.7-fold higher: 0.17 µM for the first, 0.099 µM for the second.

Compared with Cc1nc(C#CC(C)(C)C)ncc1C(=O)N[C@@H](CCN)C(=O)N(C)[C@@H]1C(=O)N[C@@H](C)C(=O)N[C@H](C(=O)NCC#N)Cc2ccc(OCCN)c(c2)-c2cc1ccc2OCCN (racemic) [Compound 228, rac-(8S,11S,14S)-3,18-bis(2-aminoethoxy)-N-(cyanomethyl)-11-methyl-14-[methyl-[rac-(2S)-4-amino-2-[[2-(3,3-dimethylbut-1-ynyl)-4-methyl-pyrimidine-5-carbonyl]amino]butanoyl]amino]-10,13-dioxo-9,12-diazatricyclo[13.3.1.12,6]icosa-1(18),2(20),3,5,15(19),16-hexaene-8-carboxamide], Cc1nc(-c2ccc(OCC(C)(C)C)cc2)ncc1C(=O)N[C@@H](CCN)C(=O)N(C)[C@@H]1C(=O)N[C@@H](C)C(=O)N[C@H](C(=O)NCC#N)Cc2ccc(OCCN)c(c2)-c2cc1ccc2OCCN (racemic) [Compound 252, rac-(8S,11S,14S)-3,18-bis(2-aminoethoxy)-N-(cyanomethyl)-11-methyl-14-[methyl-[rac-(2S)-4-amino-2-[[2-[4-(2,2-dimethylpropoxy)phenyl]-4-methyl-pyrimidine-5-carbonyl]amino]butanoyl]amino]-10,13-dioxo-9,12-diazatricyclo[13.3.1.12,6]icosa-1(18),2(20),3,5,15(19),16-hexaene-8-carboxamide] is 24-fold lower in MIC: 2.3 µM for the first, 0.097 µM for the second.

Compared with CCCCCOc1ccc(-c2ncc(C(=O)N[C@@H](CCN)C(=O)N(C)[C@@H]3C(=O)N[C@@H](C)C(=O)N[C@H](C(=O)NCC#N)Cc4ccc(OCCN)c(c4)-c4cc3ccc4OCCN)c(C)n2)cc1 (racemic) [Compound 241, rac-(8S,11S,14S)-3,18-bis(2-aminoethoxy)-N-(cyanomethyl)-11-methyl-14-[methyl-[rac-(2S)-4-amino-2-[[4-methyl-2-(4-pentoxyphenyl)pyrimidine-5-carbonyl]amino]butanoyl]amino]-10,13-dioxo-9,12-diazatricyclo[13.3.1.12,6]icosa-1(18),2(20),3,5,15(19),16-hexaene-8-carboxamide], CCCCc1ccc(-c2nc(C)c(C(=O)N[C@@H](CCN)C(=O)N(C)[C@@H]3C(=O)N[C@@H](C)C(=O)N[C@H](C(=O)NCC#N)Cc4ccc(OCCN)c(c4)-c4cc3ccc4OCCN)c(C)n2)nc1 (racemic) [Compound 293, rac-(8S,11S,14S)-3,18-bis(2-aminoethoxy)-N-(cyanomethyl)-11-methyl-14-[methyl-[rac-(2S)-4-amino-2-[[2-(5-butyl-2-pyridyl)-4,6-dimethyl-pyrimidine-5-carbonyl]amino]butanoyl]amino]-10,13-dioxo-9,12-diazatricyclo[13.3.1.12,6]icosa-1(18),2(20),3,5,15(19),16-hexaene-8-carboxamide] is 15-fold higher in MIC: 0.097 µM for the first, 1.5 µM for the second.

First: Cc1nc(-c2ccc(C3(C4CCCC4)CC3)cc2)nc(C)c1C(=O)N[C@@H](CCN)C(=O)N(C)[C@@H]1C(=O)N[C@@H](C)C(=O)N[C@H](C(=O)NCC#N)Cc2ccc(OCCN)c(c2)-c2cc1ccc2OCCN (racemic) [Compound 286, rac-(8S,11S,14S)-3,18-bis(2-aminoethoxy)-N-(cyanomethyl)-11-methyl-14-[methyl-[rac-(2S)-4-amino-2-[[2-[4-(1-cyclopentylcyclopropyl)phenyl]-4,6-dimethyl-pyrimidine-5-carbonyl]amino]butanoyl]amino]-10,13-dioxo-9,12-diazatricyclo[13.3.1.12,6]icosa-1(18),2(20),3,5,15(19),16-hexaene-8-carboxamide]
Second: Cc1nc(-c2ccc(C(C)(C)C)cc2F)nc(C)c1C(=O)N[C@@H](CCN)C(=O)N(C)[C@@H]1C(=O)N[C@@H](C)C(=O)N[C@H](C(=O)NCC#N)Cc2ccc(OCCN)c(c2)-c2cc1ccc2OCCN (racemic) [Compound 299, rac-(8S,11S,14S)-3,18-bis(2-aminoethoxy)-N-(cyanomethyl)-11-methyl-14-[methyl-[rac-(2S)-4-amino-2-[[2-(4-tert-butyl-2-fluoro-phenyl)-4,6-dimethyl-pyrimidine-5-carbonyl]amino]butanoyl]amino]-10,13-dioxo-9,12-diazatricyclo[13.3.1.12,6]icosa-1(18),2(20),3,5,15(19),16-hexaene-8-carboxamide]
The MIC of the first is 2.9-fold lower: 0.13 µM for the first, 0.38 µM for the second.
